Laboratory results as given in the supplement of paper PMC10307832.

Columns and labels:
Assay in all cases: relative viability (nuclei count vs DMSO), 5 days (fraction); higher = more cells survive
[1] = compound: CC(O)(CS(=O)(=O)c1ccc(F)cc1)C(=O)Nc1ccc(C#N)c(C(F)(F)F)c1 [Bicalutamide] + Cc1nc(NC(=O)N2CCC[C@H]2C(N)=O)sc1-c1ccnc(C(C)(C)C(F)(F)F)c1 [Alpelisib] (partner 2 µM)
Method in brief: (§1)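 One day after seeding in 1536-well plates, lung cancer cell lines were dosed by pin tool. Dosing was either single-drug or a fixed anchor-drug dose plus five library-drug doses (not always all listed) in √10 steps. After 5 days, nuclei were stained in one fix-and-stain step and counted on 4× images, and relative viability is the nuclei count of treated wells over that of vehicle wells, given as the median of duplicate plates.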

[2] = compound: C(C(=O)C(=O)O)Br [Bromopyruvate] + N=C(N)NC(=N)NCCc1ccccc1 [Phenformin] (partner 250 µM)
Method in brief: as §1

[3] = compound: C(C(=O)C(=O)O)Br [Bromopyruvate] + CC1(C)CCC(c2ccc(Cl)cc2)=C(CN2CCN(c3ccc(C(=O)NS(=O)(=O)c4ccc(N[C@H](CCN5CCOCC5)CSc5ccccc5)c(S(=O)(=O)C(F)(F)F)c4)cc3)CC2)C1 [Navitoclax] (partner 0.5 µM)
Method in brief: as §1

[4] = compound: CC(O)(CS(=O)(=O)c1ccc(F)cc1)C(=O)Nc1ccc(C#N)c(C(F)(F)F)c1 [Bicalutamide] + CCNC(=O)c1noc(-c2cc(C(C)C)c(O)cc2O)c1-c1ccc(CN2CCOCC2)cc1 [Luminespib] (partner 0.01 µM)
Method in brief: as §1

Cell Line | relative viability ([1]; first compound 0.08 µM) | relative viability ([1]; first compound 0.253 µM) | relative viability ([1]; first compound 0.8 µM) | relative viability ([1]; first compound 2.53 µM) | relative viability ([2]; first compound 1 µM) | relative viability ([2]; first compound 3.162 µM) | relative viability ([2]; first compound 10 µM) | relative viability ([2]; first compound 31.62 µM) | relative viability ([2]; first compound 100 µM) | relative viability ([3]; first compound 1 µM) | relative viability ([3]; first compound 3.162 µM) | relative viability ([3]; first compound 10 µM) | relative viability ([3]; first compound 31.62 µM) | relative viability ([3]; first compound 100 µM) | relative viability ([4]; first compound 0.08 µM) | relative viability ([4]; first compound 0.253 µM) | relative viability ([4]; first compound 0.8 µM) | relative viability ([4]; first compound 2.53 µM)
201T | 1.05 | 0.93 | 1.01 | 1 | 0.504 | 0.489 | 0.481 | 0.453 | 0.455 | 1.28 | 1.15 | 1.18 | 1.2 | 1.19 | 1.06 | 1.03 | 1.02 | 1.1
A549 | 0.878 | 0.685 | 0.889 | 0.733 | 0.17 | 0.16 | 0.0997 | 0.234 | 0.22 | 1.23 | 1.22 | 1.36 | 1.22 | 1.33 |  |  |  | 
A-427 | 1.07 | 1.09 | 1.19 | 0.992 | 0.417 | 0.353 | 0.25 | 0.335 | 0.261 | 0.967 | 0.876 | 0.895 | 1.02 | 1.04 | 1.02 | 0.761 | 1 | 0.763
ABC-1 | 1.03 | 1.21 | 0.997 | 0.992 | 0.24 | 0.262 | 0.271 | 0.262 | 0.239 |  |  |  |  |  | 0.558 | 0.296 | 0.749 | 0.596
BEN | 0.89 | 0.991 | 1.36 | 1.01 | 0.279 | 0.265 | 0.266 | 0.262 | 0.279 | 0.0705 | 0.0702 | 0.072 | 0.0664 | 0.0566 | 0.416 | 0.344 | 0.541 | 0.39
CAL-12T | 1.39 | 1.09 | 1.44 | 1.1 | 0.556 | 0.491 | 0.667 | 0.58 | 0.529 | 1.06 | 1.23 | 1.34 | 1.34 | 1.08 | 0.707 | 0.38 | 0.712 | 0.454
COR-L23 | 0.846 | 0.757 | 0.843 | 0.727 | 0.433 | 0.435 | 0.459 | 0.411 | 0.227 | 0.77 | 1.05 | 1.12 | 0.851 | 0.401 | 0.718 | 0.699 | 0.764 | 0.649
COR-L 105 | 0.957 | 0.89 | 1 | 0.83 | 0.488 | 0.438 | 0.484 | 0.405 | 0.391 | 0.757 | 0.962 | 0.689 | 0.688 | 0.549 | 1.04 | 0.721 | 0.911 | 0.652
Calu-6 | 1.04 | 0.908 | 1.04 | 0.868 |  |  |  |  |  | 0.939 | 0.922 | 0.779 | 0.792 | 0.74 |  |  |  | 
ChaGo-K-1 |  |  |  |  | 0.581 | 0.531 | 0.511 | 0.473 | 0.411 | 1.17 | 0.99 | 0.963 | 0.96 | 0.879 | 0.704 | 0.717 | 0.513 | 0.622
EBC-1 | 0.885 | 0.845 | 0.828 | 0.776 |  |  |  |  |  | 0.448 | 0.528 | 0.433 | 0.453 | 0.358 |  |  |  | 
EKVX | 0.846 | 0.827 | 1.01 | 0.829 | 0.256 | 0.24 | 0.243 | 0.246 | 0.233 | 0.887 | 0.995 | 1.06 | 0.95 | 1.07 | 0.94 | 0.871 | 0.964 | 0.892
EMC-BAC-2 | 0.702 | 0.674 | 0.791 | 0.694 | 0.517 | 0.519 | 0.637 | 0.548 | 0.571 | 1.02 | 1.17 | 1.31 | 1.15 | 1.25 | 1.13 | 1.14 | 1.17 | 1.06
EPLC-272H | 1.05 | 1.03 | 0.951 | 0.809 | 0.31 | 0.314 | 0.309 | 0.367 | 0.347 | 1.15 | 1.22 | 1.01 | 1.2 | 1.34 | 0.178 | 0.293 | 1.17 | 0.154
H3255 | 0.697 | 0.618 | 1.14 | 0.649 | 0.365 | 0.421 | 0.432 | 0.399 | 0.37 | 0.575 | 0.603 | 0.512 | 0.504 | 0.512 | 0.827 | 0.857 |  | 0.813
HARA | 1.01 | 0.767 | 0.931 | 0.876 | 0.496 | 0.431 | 0.503 | 0.483 | 0.476 | 1.12 | 1.16 | 1.13 | 1.17 | 1.14 | 0.987 | 0.721 | 0.678 | 0.847
HCC-15 | 0.935 | 0.897 | 0.985 | 0.86 | 0.472 | 0.5 | 0.521 | 0.466 | 0.456 | 0.697 | 0.723 | 0.759 | 0.765 | 0.657 | 0.445 | 0.294 | 0.57 | 0.62
HCC-44 | 0.848 | 0.764 | 0.902 | 0.794 | 0.346 | 0.191 | 0.185 | 0.184 | 0.16 | 0.907 | 0.967 | 1.08 | 0.96 | 1.04 | 0.907 | 0.97 | 1.44 | 1.15
HCC-78 | 0.288 | 0.327 | 0.452 | 0.253 | 0.644 | 0.719 | 0.759 | 0.516 | 0.657 | 0.386 | 0.759 | 0.977 | 0.893 | 0.886 |  |  |  | 
HCC-366 | 0.476 | 0.255 | 0.465 | 0.37 | 0.592 | 0.649 | 0.635 | 0.597 | 0.648 | 1.04 | 1.05 | 1.14 | 1.04 | 1.03 |  |  |  | 
